ChEMBL document CHEMBL4351021, “Design, synthesis and biological evaluation of novel FFA1/GPR40 agonists: New breakthrough in an old scaffold” (Eur J Med Chem, 2019)
One block for each molecule: values may come before it. Calls of active or inactive are those of the source. The rule behind the calls is not given here.

How the values were obtained:
[1] = tested on: Mus musculus; assay: Antidiabetic activity in ICR mouse assessed as reduction in blood glucose level at 20 mg/kg, po pretreated for 30 mins followed by glucose challenge and measured up to 120 mins by OGTT; type: functional, organism-based
[2] = Clearance in Sprague-Dawley rat at 10 mg/kg, po measured for […] by LC-MS/MS analysis; type: ADME, organism-based; details: in vivo
[3] = Cmax in Sprague-Dawley rat at 10 mg/kg, po measured for […] by LC-MS/MS analysis; type: ADME, organism-based; design: dose 10 mg/kg, route oral; details: in vivo
[4] = AUC (0 to 24 hrs) in Sprague-Dawley rat at 10 mg/kg, po measured for […] by LC-MS/MS analysis; type: ADME, organism-based; design: time < 24 hr, dose 10 mg/kg, route oral; details: in vivo; for AUC: 24 h
[5] = Half life in Sprague-Dawley rat at 10 mg/kg, po measured for […] by LC-MS/MS analysis; type: ADME, organism-based; details: in vivo
[6] = tested on: Mus musculus; assay: Antidiabetic activity in ICR mouse assessed as glucose-stimulated change in GLP-1 secretion at 20 mg/kg, po pretreated for 0.5 hrs followed by glucose challenge and measured after 5 mins by ELISA; type: functional, organism-based
[7] = tested on: Mus musculus; assay: Antidiabetic activity in ICR mouse assessed as increase in GLP-1 secretion at 20 mg/kg, po pretreated with DPP4 inhibitor linagliptin for 1 hr followed by compound addition and measured after 4 hrs by ELISA; type: functional, organism-based
[8] = tested on: Mus musculus; assay: Antidiabetic activity in HFD fed/STZ-treated C57BL/6 mouse assessed as decrease in blood glucose at 20 mg/kg, po pretreated for 30 mins followed by glucose challenge and measured after up to 120 mins by OGTT; type: functional, organism-based
[9] = tested on: Hepatocyte; assay: Hepatotoxicity in sandwich-cultured Sprague-Dawley rat hepatocytes assessed as decrease in accumulation of d8-TCA at 25 uM incubated for 15 mins followed by d8-TCA addition and measured after 15 mins by LC-MS/MS analysis; type: toxicity, cell-based; details: 0.25 h
[10] = tested on: Mus musculus; assay: Antidiabetic activity in ICR mouse assessed as flattening of glucose curve after 1 hr at 20 mg/kg, po pretreated for 30 mins followed by glucose challenge and measured up to 120 mins by OGTT; type: functional, organism-based
[11] = Lipophilicity, logD of compound in 1-octanol and PBS mixture in pH 7.4 at 100 uM incubated for 24 under shaking condition by HPLC analysis; type: physicochemical; details: 1-octanol/PBS
[12] = tested on: Hepatocyte; assay: Hepatotoxicity in sandwich-cultured Sprague-Dawley rat hepatocytes assessed as inhibition of hepatobiliary transport by measuring biliary excretion index at 25 uM incubated for 15 mins followed by d8-TCA addition and measured after 15 mins by LC-MS/MS analysis; type: toxicity, cell-based; details: 0.25 h
[13] = target: T1, Free fatty acid receptor 1 (Homo sapiens, UniProt O14842); assay: Agonist activity at FFA1 receptor (unknown origin) stably expressed in CHO cells assessed as increase in calcium flux by Fluo4-AM based FLIPR assay; type: functional, cell-based
T1 sequence (O14842 whole entry): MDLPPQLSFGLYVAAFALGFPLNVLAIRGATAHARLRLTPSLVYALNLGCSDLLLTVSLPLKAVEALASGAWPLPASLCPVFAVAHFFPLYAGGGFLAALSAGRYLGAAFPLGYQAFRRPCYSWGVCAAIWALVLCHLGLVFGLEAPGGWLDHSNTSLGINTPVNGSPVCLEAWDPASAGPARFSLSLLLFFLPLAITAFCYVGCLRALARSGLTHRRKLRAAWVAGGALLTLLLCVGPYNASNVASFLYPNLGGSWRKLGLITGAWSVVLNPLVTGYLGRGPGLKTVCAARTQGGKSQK

[14] = target: T1, Free fatty acid receptor 1; assay: Potency index, ratio of EC50 for 2-(4-(([…]3-yl)methoxy)-2-fluorophenoxy)acetic acid to EC50 for test compound for Agonist activity at FFA1 receptor (unknown origin) stably expressed in CHO cells assessed as increase in calcium flux by Fluo4-AM based FLIPR assay; type: functional, cell-based
[15] = tested on: Rattus norvegicus; assay: Antidiabetic activity in Sprague-Dawley rat assessed as suppression in blood glucose excursion at 10 mg/kg, po pretreated for 1 hr followed by glucose challenge and measured up to 120 mins by OGTT; type: functional, organism-based
[16] = tested on: Rattus norvegicus; assay: Antidiabetic activity in Sprague-Dawley rat assessed as increase in plasma insulin level at 10 mg/kg, po administrated and measured up to 120 mins by ELISA; type: functional, organism-based
[17] = tested on: Rattus norvegicus; assay: Antidiabetic activity in Sprague-Dawley rat assessed as change in blood glucose level in fasting state at 10 mg/kg, po pretreated for 1 hr followed by glucose challenge and measured up to 120 mins by OGTT; type: functional, organism-based
[18] = Acute toxicity in ICR mouse assessed as change in ALT level up to 500 mg/kg, po daily for 7 days; type: organism-based; details: in vivo, 168 h
[19] = Acute toxicity in ICR mouse assessed as change in AST level up to 500 mg/kg, po daily for 7 days; type: organism-based; details: in vivo, 168 h
[20] = Acute toxicity in ICR mouse assessed as change in liver morphology at 5 to 500 mg/kg, po daily for 7 days by H and E staining based histopathological analysis; type: organism-based; details: in vivo, 168 h
[21] = Acute toxicity in ICR mouse assessed as induction of side effects at 5 to 500 mg/kg, po daily for 7 days; type: organism-based; details: in vivo, 168 h
[22] = tested on: Rattus norvegicus; assay: Antidiabetic activity in Sprague-Dawley rat assessed as increase in plasma insulin level at 10 mg/kg, po pretreated for 1 hr followed by glucose challenge and measured at 0 mins by ELISA; type: functional, organism-based
[23] = tested on: Rattus norvegicus; assay: Antidiabetic activity in Sprague-Dawley rat assessed as change in blood glucose level at 10 mg/kg, po pretreated for 1 hr followed by glucose challenge by OGTT; type: functional, organism-based; details: TDE = time-dependent effect
[24] = tested on: Rattus norvegicus; assay: Antidiabetic activity in Sprague-Dawley rat assessed as change plasma in insulin level at 10 mg/kg, po pretreated for 1 hr followed by glucose challenge by ELISA; type: functional, organism-based; details: TDE = time-dependent effect

CL [2]: 0.4177 mL/min/kg
Cmax [3]: 87.4 µg/mL
AUC [4]: 1064.23 µg·h/mL
half-life [5]: 4.32 h
SMILES: Cc1cc(OCCCS(C)(=O)=O)cc(C)c1-c1cccc(COc2ccc3c(c2)OC[C@H]3CC(=O)O)c1
Activity [1]: Active
Activity [6]: inactive
Activity [7]: inactive
Activity [8]: Active
Activity [9]: Toxic

EC50 [13]: 11.6 nM
logD at 100 µM [11]: 2.83
SMILES: CCOc1ccc(-c2cccc(CNc3ccc(OCC(=O)O)c(F)c3)c2)c(C)c1
Activity [1]: Active
Activity_index [12]: 19.3%
Activity [9]: Toxic

EC50 [13]: 22.5 nM
logD at 100 µM [11]: 3.24
SMILES: Cc1ccc(-c2cccc(CNc3ccc(OCC(=O)O)c(F)c3)c2)c(Cl)c1

EC50 [13]: > 1000 nM
SMILES: CCOc1cc(C)c(-c2cccc(COc3ccc(NCC(=O)O)c(F)c3)c2)c(C)c1

EC50 [13]: 41.9 nM
logD at 100 µM [11]: 2.23
SMILES: COCCOc1ccc(-c2cccc(CNc3ccc(OCC(=O)O)c(F)c3)c2)c(C)c1

EC50 [13]: 51.6 nM
logD at 100 µM [11]: 2.47
SMILES: COCCOc1cc(C)c(-c2cccc(CNc3ccc(OCC(=O)O)c(F)c3)c2)c(C)c1

EC50 [13]: 45.6 nM
logD at 100 µM [11]: 1.59
SMILES: Cc1cc(OCCCS(C)(=O)=O)ccc1-c1cccc(CNc2ccc(OCC(=O)O)c(F)c2)c1

EC50 [13]: 86.2 nM
logD at 100 µM [11]: 3.45
SMILES: CC(C)c1ccccc1-c1cccc(CNc2ccc(OCC(=O)O)c(F)c2)c1

EC50 [13]: 536 nM
SMILES: COc1ccccc1-c1cccc(CNc2ccc(OCC(=O)O)c(F)c2)c1

EC50 [13]: 729 nM
SMILES: N#Cc1ccccc1-c1cccc(CNc2ccc(OCC(=O)O)c(F)c2)c1

EC50 [13]: 36.5 nM
logD at 100 µM [11]: 2.36
SMILES: O=C(O)COc1ccc(NCc2cccc(-c3ccccc3F)c2)cc1F

EC50 [13]: 225 nM
SMILES: Cc1noc(C)c1-c1cccc(CNc2ccc(OCC(=O)O)c(F)c2)c1

EC50 [13]: 41.3 nM
logD at 100 µM [11]: 3.37
SMILES: CCCOc1ccc(-c2cccc(CNc3ccc(OCC(=O)O)c(F)c3)c2)c(C)c1

The remaining lines, values behind:

SMILES: Cc1ccccc1-c1cccc(CNc2ccc(OCC(=O)O)c(F)c2)c1
Activity [10]: Active
logD at 100 µM [11]: 2.41
Activity [1]: Active
Activity_index [12]: 12.3%
CL/F ([2]; Sprague-Dawley): 0.109 mL/min/kg
Cmax [3]: 187 µg/mL
AUC(0-t) at 24 h ([4]; Sprague-Dawley): 2870 µg·h/mL
half-life [5]: 5.42 h
Activity [9]: Toxic

SMILES: O=C(O)COc1ccc(NCc2ccc(Cl)c(-c3ccccc3)c2)cc1F
EC50 [13]: 51.7 nM
logD at 100 µM [11]: 2.74

SMILES: Cc1cc(OCCCS(C)(=O)=O)cc(C)c1-c1cccc(CNc2ccc(OCC(=O)O)c(F)c2)c1
EC50 [13]: 59.8 nM
logD at 100 µM [11]: 1.73

SMILES: O=C(O)COc1ccc(NCc2cccc(-c3ccccc3)c2)cc1F
EC50 [13]: 58.5 nM
logD at 100 µM [11]: 2.25

SMILES: Cc1cc(OCCO)ccc1-c1cccc(CNc2ccc(OCC(=O)O)c(F)c2)c1
EC50 [13]: 36.1 nM
logD at 100 µM [11]: 1.65
Activity_index [12]: 14.3%
Activity [9]: Toxic

SMILES: Cc1cc(O)ccc1-c1cccc(CNc2ccc(OCC(=O)O)c(F)c2)c1
EC50 [13]: 69.6 nM
logD at 100 µM [11]: 1.85

SMILES: CCOc1cc(C)c(-c2cccc(CNc3ccc(OCC(=O)O)c(F)c3)c2)c(C)c1
EC50 [13]: 24.2 nM
logD at 100 µM [11]: 3.04
Activity [1]: Active
Ratio EC50 [14]: 3

SMILES: CCOc1cc(C)c(-c2cccc(CNc3ccc(OCC(=O)O)cc3)c2)c(C)c1
EC50 [13]: 197 nM

SMILES: O=C(O)COc1ccc(NCc2cccc(-c3ccccc3Cl)c2)cc1F
EC50 [13]: 19.3 nM
logD at 100 µM [11]: 2.71
Activity [1]: Active

SMILES: O=C(O)COc1ccc(NCc2cccc(-c3ccccc3C(F)(F)F)c2)cc1F
EC50 [13]: 15.7 nM
logD at 100 µM [11]: 3.13
Activity [1]: Active
Activity_index [12]: 29.6%
CL [2]: 0.124 mL/min/kg
Cmax [3]: 322 µg/mL
AUC [4]: 3909.33 µg·h/mL
half-life [5]: 4.84 h
Activity [15]: Active
Activity [16]: inactive
Activity [17]: inactive
Activity [6]: inactive
Activity [7]: Active
Activity [8]: Active
Activity [18]: Non-Toxic
Activity [19]: Non-Toxic
Activity [20]: Non-Toxic
Activity [21]: Non-Toxic
Activity [9]: Toxic
Activity [22]: Active
Activity [23]: Tde
Activity [24]: Tde

SMILES: COc1ccc(Cl)cc1C(=O)NCCc1ccc(S(=O)(=O)NC(=O)NC2CCCCC2)cc1
Activity [17]: Active

SMILES: CCCOc1cc(C)c(-c2cccc(CNc3ccc(OCC(=O)O)c(F)c3)c2)c(C)c1
EC50 [13]: 38.7 nM
logD at 100 µM [11]: 3.59

SMILES: CCOc1cc(C)c(-c2cccc(COc3ccc(OCC(=O)O)c(F)c3)c2)c(C)c1
EC50 [13]: 69.3 nM
logD at 100 µM [11]: 3.61

SMILES: CO/N=C(\COc1ccc(CNc2ccc(OCC(=O)O)c(F)c2)cc1)c1ccccc1
EC50 [13]: 398 nM
